{
  "source": "patent US12049450B2",
  "about": "“Pyridyloxy-carboxylate derivative and preparation method therefor, herbicidal composition, and use” (Qingdao Kingagroot Chemical Compound Co., Ltd., priority 2018, dated 2024)",
  "experiment_in_all_cases": "Post-emergence test experiment (greenhouse pot, spray at 2-3 leaf stage)",
  "assay_type_in_all_cases": "in vivo",
  "details_in_all_cases": "1000 g/ha; post-emergence spray at 2-3 leaf stage; assessed after 3 weeks; fresh weight inhibition rate",
  "key": {"Echinochloa crusgalli": {"system": "Echinochloa crusgalli", "how_it_was_run": "(§1)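 Weed seeds sown in soil-filled pots in greenhouse, sprayed at 2-3 leaf stage (2 weeks after sowing) with compound in acetone/tween-80 plus methyl oleate emulsible concentrate (1.5 L/ha) diluted in water. Fresh-weight growth inhibition scored after 3 weeks on 0-5 scale (5: >85%, 0: <5%).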"}, "Abutilon theophrasti": {"system": "Abutilon theophrasti", "how_it_was_run": "as §1"}, "Digitaria sanguinalis": {"system": "Digitaria sanguinalis", "how_it_was_run": "as §1"}, "Galium spurium": {"system": "Galium spurium", "how_it_was_run": "as §1"}, "Monochoria vaginalis": {"system": "Monochoria vaginalis", "how_it_was_run": "as §1"}},
  "data": [
    {"smiles": "CC(Oc1nc(F)c(Cl)c(N)c1Cl)C(=O)OCc1ccccc1C(F)(F)F", "note": "(centres unmarked) [Compound 208]", "values": [
      {"measurement": "Activity level (growth inhibition rate) Echinochloa crusgalli", "setting": "Echinochloa crusgalli", "result": "5 (Level 5: the growth inhibition rate is greater than 85%)"},
      {"measurement": "Activity level (growth inhibition rate) Abutilon theophrasti", "setting": "Abutilon theophrasti", "result": "5 (Level 5: the growth inhibition rate is greater than 85%)"},
      {"measurement": "Activity level (growth inhibition rate) Digitaria sanguinalis", "setting": "Digitaria sanguinalis", "result": "5 (Level 5: the growth inhibition rate is greater than 85%)"},
      {"measurement": "Activity level (growth inhibition rate) Galium spurium", "setting": "Galium spurium", "result": "5 (Level 5: the growth inhibition rate is greater than 85%)"},
      {"measurement": "Activity level (growth inhibition rate) Monochoria Vaginalis", "setting": "Monochoria vaginalis", "result": "5 (Level 5: the growth inhibition rate is greater than 85%)"}
    ]},
    {"smiles": "CC(Oc1nc(F)c(Cl)c(N)c1Cl)C(=O)OCc1cccc(C(F)(F)F)c1", "note": "(centres unmarked) [Compound 209]", "values": [
      {"measurement": "Activity level (growth inhibition rate) Echinochloa crusgalli", "setting": "Echinochloa crusgalli", "result": "5 (Level 5: the growth inhibition rate is greater than 85%)"},
      {"measurement": "Activity level (growth inhibition rate) Abutilon theophrasti", "setting": "Abutilon theophrasti", "result": "5 (Level 5: the growth inhibition rate is greater than 85%)"},
      {"measurement": "Activity level (growth inhibition rate) Digitaria sanguinalis", "setting": "Digitaria sanguinalis", "result": "5 (Level 5: the growth inhibition rate is greater than 85%)"},
      {"measurement": "Activity level (growth inhibition rate) Galium spurium", "setting": "Galium spurium", "result": "5 (Level 5: the growth inhibition rate is greater than 85%)"},
      {"measurement": "Activity level (growth inhibition rate) Monochoria Vaginalis", "setting": "Monochoria vaginalis", "result": "5 (Level 5: the growth inhibition rate is greater than 85%)"}
    ]},
    {"smiles": "CC(Oc1nc(F)c(Cl)c(N)c1Cl)C(=O)OCc1ccc(C(F)(F)F)cc1", "note": "(centres unmarked) [Compound 210]", "values": [
      {"measurement": "Activity level (growth inhibition rate) Echinochloa crusgalli", "setting": "Echinochloa crusgalli", "result": "5 (Level 5: the growth inhibition rate is greater than 85%)"},
      {"measurement": "Activity level (growth inhibition rate) Abutilon theophrasti", "setting": "Abutilon theophrasti", "result": "5 (Level 5: the growth inhibition rate is greater than 85%)"},
      {"measurement": "Activity level (growth inhibition rate) Digitaria sanguinalis", "setting": "Digitaria sanguinalis", "result": "5 (Level 5: the growth inhibition rate is greater than 85%)"},
      {"measurement": "Activity level (growth inhibition rate) Galium spurium", "setting": "Galium spurium", "result": "5 (Level 5: the growth inhibition rate is greater than 85%)"},
      {"measurement": "Activity level (growth inhibition rate) Monochoria Vaginalis", "setting": "Monochoria vaginalis", "result": "5 (Level 5: the growth inhibition rate is greater than 85%)"}
    ]},
    {"smiles": "CC(Oc1nc(F)c(Cl)c(N)c1Cl)C(=O)OCc1cccc2ccccc12", "note": "(centres unmarked) [Compound 211]", "values": [
      {"measurement": "Activity level (growth inhibition rate) Echinochloa crusgalli", "setting": "Echinochloa crusgalli", "result": "5 (Level 5: the growth inhibition rate is greater than 85%)"},
      {"measurement": "Activity level (growth inhibition rate) Abutilon theophrasti", "setting": "Abutilon theophrasti", "result": "5 (Level 5: the growth inhibition rate is greater than 85%)"},
      {"measurement": "Activity level (growth inhibition rate) Digitaria sanguinalis", "setting": "Digitaria sanguinalis", "result": "5 (Level 5: the growth inhibition rate is greater than 85%)"},
      {"measurement": "Activity level (growth inhibition rate) Galium spurium", "setting": "Galium spurium", "result": "5 (Level 5: the growth inhibition rate is greater than 85%)"},
      {"measurement": "Activity level (growth inhibition rate) Monochoria Vaginalis", "setting": "Monochoria vaginalis", "result": "5 (Level 5: the growth inhibition rate is greater than 85%)"}
    ]},
    {"smiles": "CC(Oc1nc(F)c(Cl)c(N)c1Cl)C(=O)OCc1ccco1", "note": "(centres unmarked) [Compound 212]", "values": [
      {"measurement": "Activity level (growth inhibition rate) Echinochloa crusgalli", "setting": "Echinochloa crusgalli", "result": "5 (Level 5: the growth inhibition rate is greater than 85%)"},
      {"measurement": "Activity level (growth inhibition rate) Abutilon theophrasti", "setting": "Abutilon theophrasti", "result": "5 (Level 5: the growth inhibition rate is greater than 85%)"},
      {"measurement": "Activity level (growth inhibition rate) Digitaria sanguinalis", "setting": "Digitaria sanguinalis", "result": "5 (Level 5: the growth inhibition rate is greater than 85%)"},
      {"measurement": "Activity level (growth inhibition rate) Galium spurium", "setting": "Galium spurium", "result": "5 (Level 5: the growth inhibition rate is greater than 85%)"},
      {"measurement": "Activity level (growth inhibition rate) Monochoria Vaginalis", "setting": "Monochoria vaginalis", "result": "5 (Level 5: the growth inhibition rate is greater than 85%)"}
    ]},
    {"smiles": "CC(Oc1nc(F)c(Cl)c(N)c1Cl)C(=O)OCc1ccoc1", "note": "(centres unmarked) [Compound 213]", "values": [
      {"measurement": "Activity level (growth inhibition rate) Echinochloa crusgalli", "setting": "Echinochloa crusgalli", "result": "5 (Level 5: the growth inhibition rate is greater than 85%)"},
      {"measurement": "Activity level (growth inhibition rate) Abutilon theophrasti", "setting": "Abutilon theophrasti", "result": "5 (Level 5: the growth inhibition rate is greater than 85%)"},
      {"measurement": "Activity level (growth inhibition rate) Digitaria sanguinalis", "setting": "Digitaria sanguinalis", "result": "5 (Level 5: the growth inhibition rate is greater than 85%)"},
      {"measurement": "Activity level (growth inhibition rate) Galium spurium", "setting": "Galium spurium", "result": "5 (Level 5: the growth inhibition rate is greater than 85%)"},
      {"measurement": "Activity level (growth inhibition rate) Monochoria Vaginalis", "setting": "Monochoria vaginalis", "result": "5 (Level 5: the growth inhibition rate is greater than 85%)"}
    ]},
    {"smiles": "CC(Oc1nc(F)c(Cl)c(N)c1Cl)C(=O)OCc1cccs1", "note": "(centres unmarked) [Compound 214]", "values": [
      {"measurement": "Activity level (growth inhibition rate) Echinochloa crusgalli", "setting": "Echinochloa crusgalli", "result": "5 (Level 5: the growth inhibition rate is greater than 85%)"},
      {"measurement": "Activity level (growth inhibition rate) Abutilon theophrasti", "setting": "Abutilon theophrasti", "result": "5 (Level 5: the growth inhibition rate is greater than 85%)"},
      {"measurement": "Activity level (growth inhibition rate) Digitaria sanguinalis", "setting": "Digitaria sanguinalis", "result": "5 (Level 5: the growth inhibition rate is greater than 85%)"},
      {"measurement": "Activity level (growth inhibition rate) Galium spurium", "setting": "Galium spurium", "result": "5 (Level 5: the growth inhibition rate is greater than 85%)"},
      {"measurement": "Activity level (growth inhibition rate) Monochoria Vaginalis", "setting": "Monochoria vaginalis", "result": "5 (Level 5: the growth inhibition rate is greater than 85%)"}
    ]},
    {"smiles": "CC(Oc1nc(F)c(Cl)c(N)c1Cl)C(=O)OCc1ccsc1", "note": "(centres unmarked) [Compound 215]", "values": [
      {"measurement": "Activity level (growth inhibition rate) Echinochloa crusgalli", "setting": "Echinochloa crusgalli", "result": "5 (Level 5: the growth inhibition rate is greater than 85%)"},
      {"measurement": "Activity level (growth inhibition rate) Abutilon theophrasti", "setting": "Abutilon theophrasti", "result": "5 (Level 5: the growth inhibition rate is greater than 85%)"},
      {"measurement": "Activity level (growth inhibition rate) Digitaria sanguinalis", "setting": "Digitaria sanguinalis", "result": "5 (Level 5: the growth inhibition rate is greater than 85%)"},
      {"measurement": "Activity level (growth inhibition rate) Galium spurium", "setting": "Galium spurium", "result": "5 (Level 5: the growth inhibition rate is greater than 85%)"},
      {"measurement": "Activity level (growth inhibition rate) Monochoria Vaginalis", "setting": "Monochoria vaginalis", "result": "5 (Level 5: the growth inhibition rate is greater than 85%)"}
    ]},
    {"smiles": "CC(Oc1nc(F)c(Cl)c(N)c1Cl)C(=O)OCc1ccnn1C", "note": "(centres unmarked) [Compound 216]", "values": [
      {"measurement": "Activity level (growth inhibition rate) Echinochloa crusgalli", "setting": "Echinochloa crusgalli", "result": "5 (Level 5: the growth inhibition rate is greater than 85%)"},
      {"measurement": "Activity level (growth inhibition rate) Abutilon theophrasti", "setting": "Abutilon theophrasti", "result": "5 (Level 5: the growth inhibition rate is greater than 85%)"},
      {"measurement": "Activity level (growth inhibition rate) Digitaria sanguinalis", "setting": "Digitaria sanguinalis", "result": "5 (Level 5: the growth inhibition rate is greater than 85%)"},
      {"measurement": "Activity level (growth inhibition rate) Galium spurium", "setting": "Galium spurium", "result": "5 (Level 5: the growth inhibition rate is greater than 85%)"},
      {"measurement": "Activity level (growth inhibition rate) Monochoria Vaginalis", "setting": "Monochoria vaginalis", "result": "5 (Level 5: the growth inhibition rate is greater than 85%)"}
    ]},
    {"smiles": "CC(Oc1nc(F)c(Cl)c(N)c1Cl)C(=O)OCc1cnn(C)c1", "note": "(centres unmarked) [Compound 217]", "values": [
      {"measurement": "Activity level (growth inhibition rate) Echinochloa crusgalli", "setting": "Echinochloa crusgalli", "result": "5 (Level 5: the growth inhibition rate is greater than 85%)"},
      {"measurement": "Activity level (growth inhibition rate) Abutilon theophrasti", "setting": "Abutilon theophrasti", "result": "5 (Level 5: the growth inhibition rate is greater than 85%)"},
      {"measurement": "Activity level (growth inhibition rate) Digitaria sanguinalis", "setting": "Digitaria sanguinalis", "result": "5 (Level 5: the growth inhibition rate is greater than 85%)"},
      {"measurement": "Activity level (growth inhibition rate) Galium spurium", "setting": "Galium spurium", "result": "5 (Level 5: the growth inhibition rate is greater than 85%)"},
      {"measurement": "Activity level (growth inhibition rate) Monochoria Vaginalis", "setting": "Monochoria vaginalis", "result": "5 (Level 5: the growth inhibition rate is greater than 85%)"}
    ]},
    {"smiles": "Cc1ccccc1CSC(=O)C(C)Oc1nc(F)c(Cl)c(N)c1Cl", "note": "(centres unmarked) [Compound 218]", "values": [
      {"measurement": "Activity level (growth inhibition rate) Echinochloa crusgalli", "setting": "Echinochloa crusgalli", "result": "5 (Level 5: the growth inhibition rate is greater than 85%)"},
      {"measurement": "Activity level (growth inhibition rate) Abutilon theophrasti", "setting": "Abutilon theophrasti", "result": "5 (Level 5: the growth inhibition rate is greater than 85%)"},
      {"measurement": "Activity level (growth inhibition rate) Digitaria sanguinalis", "setting": "Digitaria sanguinalis", "result": "5 (Level 5: the growth inhibition rate is greater than 85%)"},
      {"measurement": "Activity level (growth inhibition rate) Galium spurium", "setting": "Galium spurium", "result": "5 (Level 5: the growth inhibition rate is greater than 85%)"},
      {"measurement": "Activity level (growth inhibition rate) Monochoria Vaginalis", "setting": "Monochoria vaginalis", "result": "5 (Level 5: the growth inhibition rate is greater than 85%)"}
    ]},
    {"smiles": "Cc1cccc(CSC(=O)C(C)Oc2nc(F)c(Cl)c(N)c2Cl)c1", "note": "(centres unmarked) [Compound 219]", "values": [
      {"measurement": "Activity level (growth inhibition rate) Echinochloa crusgalli", "setting": "Echinochloa crusgalli", "result": "5 (Level 5: the growth inhibition rate is greater than 85%)"},
      {"measurement": "Activity level (growth inhibition rate) Abutilon theophrasti", "setting": "Abutilon theophrasti", "result": "5 (Level 5: the growth inhibition rate is greater than 85%)"},
      {"measurement": "Activity level (growth inhibition rate) Digitaria sanguinalis", "setting": "Digitaria sanguinalis", "result": "5 (Level 5: the growth inhibition rate is greater than 85%)"},
      {"measurement": "Activity level (growth inhibition rate) Galium spurium", "setting": "Galium spurium", "result": "5 (Level 5: the growth inhibition rate is greater than 85%)"},
      {"measurement": "Activity level (growth inhibition rate) Monochoria Vaginalis", "setting": "Monochoria vaginalis", "result": "5 (Level 5: the growth inhibition rate is greater than 85%)"}
    ]},
    {"smiles": "Cc1ccc(CSC(=O)C(C)Oc2nc(F)c(Cl)c(N)c2Cl)cc1", "note": "(centres unmarked) [Compound 220]", "values": [
      {"measurement": "Activity level (growth inhibition rate) Echinochloa crusgalli", "setting": "Echinochloa crusgalli", "result": "5 (Level 5: the growth inhibition rate is greater than 85%)"},
      {"measurement": "Activity level (growth inhibition rate) Abutilon theophrasti", "setting": "Abutilon theophrasti", "result": "5 (Level 5: the growth inhibition rate is greater than 85%)"},
      {"measurement": "Activity level (growth inhibition rate) Digitaria sanguinalis", "setting": "Digitaria sanguinalis", "result": "5 (Level 5: the growth inhibition rate is greater than 85%)"},
      {"measurement": "Activity level (growth inhibition rate) Galium spurium", "setting": "Galium spurium", "result": "5 (Level 5: the growth inhibition rate is greater than 85%)"},
      {"measurement": "Activity level (growth inhibition rate) Monochoria Vaginalis", "setting": "Monochoria vaginalis", "result": "5 (Level 5: the growth inhibition rate is greater than 85%)"}
    ]}
  ]
}
